The subject of data set [1] is hyaluronic acid production. Put plainly: Hyaluronic acid (HA) production in HaCaT cells (ELISA). It is filed as cell-based, human. As for the experimental part:
The HaCaT human keratinocyte cell line was obtained from Cell Line Service GmbH (Germany). The cells were cultured in DMEM containing 1% penicillin-streptomycin and 10% fetal bovine serum (FBS) at 37 °C in a 5% CO2 incubator, and subculture was performed every 2 to 3 days.
HaCaT cells were seeded at 1.0×10^5 cells/well in a 24-well plate and incubated for 24 hours at 37 °C in a 5% CO2 incubator. After incubation, the culture medium was replaced with serum-free DMEM, and the peptide prepared in the above Example was applied at concentrations of 50-200 μM, followed by incubation for 24 hours.
The supernatant from each experimental group was collected, and the amount of hyaluronic acid (HA) released into the medium was measured. The positive control group was treated with N-acetylglucosamine at a concentration of 10 mM. Measurement of hyaluronic acid production was conducted using a Hyaluronic Acid ELISA Kit (Cusabio Biotechnology Co., Ltd.) following the manufacturer's protocol.
Background: In an ELISA, binding on a coated surface is turned into a signal by an enzyme label.

Data set [2] deals with nitric oxide (NO) production. Description: Inhibition of Nitric Oxide (NO) Production (griess reagent) in LPS-stimulated RAW264.7 cells. Particulars: 24 hours; for NO Production (%): LPS 1 μg/ml, relative to LPS control = 100. It counts as cell-based. As for the experimental part:
(§1) RAW264.7 macrophage cells were obtained from the American Type Culture Collection (ATCC) and cultured in Dulbecco's Modified Eagle's Medium (DMEM) containing 100 units/mL penicillin-streptomycin and 10% (v/v) fetal bovine serum (FBS) at 37 °C in a 5% CO2 incubator, and subculture was performed every 2 to 3 days.
RAW264.7 cells were seeded at 1.5×10^5 cells/well in a 24-well plate and incubated for 18 hours at 37 °C in a 5% CO2 incubator. The cells were then treated with the peptide prepared in the above Example at concentrations of 50-200 μM and incubated for 24 hours.
From each experimental group, 100 μL of the supernatant was collected into a 96-well plate, and 100 μL of griess reagent was added. The mixture was allowed to react at room temperature for 10 minutes, and absorbance was measured at 540 nm using a microplate reader. The positive control group was treated with 2 µM of 2-amino-4-methylpyridine (2-AM). The relative levels of NO production following the treatments described in the above Example, based on NO production induced by the stimulant (LPS), are shown in Table 1 and FIG. 2 below.
For orientation: The Griess reaction detects nitrite, a stable product of nitric oxide.

The test system of data set [3] is procollagen type I peptide production. Description: Procollagen Type I Peptide (PIP) production in NHDF cells (EIA). It is filed as cell-based, Human. As for the experimental part:
Normal Human Dermal Fibroblasts (NHDF) were obtained from Lonza (Lonza Walkersville, Inc.) and cultured in FBM (Fibroblast Basal Medium) supplemented with 0.1% hFGF-B, insulin, GA-1000, and 2% FBS at 37 °C in a 5% CO2 incubator. Subculture was performed every 2 to 3 days.
NHDF cells were seeded at 2.0×10^4 cells/well in a 24-well plate and incubated for 24 hours at 37 °C in a 5% CO2 incubator. After incubation, the culture medium was replaced with serum-free FBM, and the peptide prepared in the above Example was applied at concentrations of 1-100 μM, followed by incubation for 24 hours. The supernatant from each experimental group was collected, and the amount of procollagen released into the medium was measured. The positive control group was treated with ascorbic acid at a concentration of 0.001 v/v %. Measurement of procollagen levels was performed using a Procollagen Type I Peptide (PIP) EIA Kit (Takara Biomedical Co.) according to the manufacturer's protocol. The quantitative results of procollagen type I peptide production following treatment with the peptide of the Example are shown in Table 3 and FIG. 4.

A short description of data set [4]: Cytotoxicity Evaluation in Macrophages (EZ-Cytox Assay). Particulars: mouse, positive control, LPS 1 μg/ml, RAW264.7 cells, control = 100, read-out: Cell viability (%). It is filed as cell-based. As for the experimental part: as §1
The EZ-cytox assay is a representative method for measuring cell viability using the principle that water-soluble tetrazolium salts (WSTs) react with dehydrogenases of viable cells to produce a water-soluble orange formazan.
To evaluate cytotoxicity, RAW264.7 cells were seeded at 1.5×10^4 cells/well in a 96-well plate using DMEM supplemented with 10% FBS and incubated for 18 hours at 37 °C in a 5% CO2 incubator. The test samples were then applied to the cultured cells. After treatment, EZ-cytox was added to each well and incubated for 30 minutes under the same conditions. Absorbance was measured at 450 nm using a microplate reader. The mean absorbance values of each sample group were compared with the control group to determine cell viability.

[5] abbreviates: 50 μM, 24 hours, untreated group = 100.
Setting [6] is: 100 μM, 24 hours, untreated group = 100.

Structures are written as SMILES. Where a SMILES comes first, the peptide text is derived from it.

Take `N[C@@H](Cc1ccc(O)cc1)C(=O)NCC(=O)N[C@@H](CO)C(=O)N[C@@H](CC(=O)O)C(=O)O` [Example, Tyr-Gly-Ser-Asp] (H-YGSD-OH): the “Hyaluronic acid production (%)” value in data set [1] (setting [5]) was determined as 105.1 ± 5.45%; in data set [1] (setting [6]) it was 123.64 ± 0.81%; in data set [1] (200 μM, 24 hours, untreated group = 100) it was 132.68 ± 22.43%. Moreover, the “hyaluronic acid production, result in words” value in data set [1] (50-200 μM, 24 hours) is “increase in hyaluronic acid production”. Moreover, the “NO Production (%)” value in data set [2] (50 μM) amounted to 101.55 ± 2.59%; in data set [2] (100 μM), 91.42 ± 4.58%; in data set [2] (200 μM), 86.51 ± 2.39%. Further, the “NO production, result in words” value in data set [2] (50-200 μM, LPS) is given as “inhibit NO production in a concentration-dependent manner”. The “Procollagen production (%)” value was 103.47 ± 6.38% in data set [3] (1 μM, 24 hours, untreated group = 100); 110.79 ± 5.44% in data set [3] (10 μM, 24 hours, untreated group = 100); 121.67 ± 3.57% in data set [3] (setting [5]); 132.38 ± 1.24% in data set [3] (setting [6]). Further, in data set [3] (1-100 μM, 24 hours), the “procollagen production, result in words” value was “increase in procollagen production”.

In the case of `CC(=O)N[C@H]1C(O)O[C@H](CO)[C@@H](O)[C@@H]1O` (stereo partly shown) [NAG, N-acetylglucosamine, reference compound], the activity at 10000 µM in data set [1] (Homo sapiens, 24 h, 10 mM, positive control, untreated group = 100) was determined as 121 ± 10.4%.

Take `Cc1ccnc(N)c1` [Example 2-AM, 2-amino-4-methylpyridine, reference compound]: in data set [4], the viability at 10 µM was 94.1 ± 1.76%.

Consider `O=C1O[C@H]([C@@H](O)CO)C(O)=C1O` [Asc. A, ascorbic acid, reference compound], for which the activity at 10 µg/mL in data set [3] (Homo sapiens, 24 h, 10 μg/mL, positive control, untreated group = 100) stood at 176 ± 3.91%.

One may read the viability as a read-out of living cells in per cent, often relative to untreated cells.

The record behind these values is US20260365695A1, “NOVEL PEPTIDE EXHIBITING SKIN CONDITION IMPROVEMENT ACTIVITY AND COSMETIC COMPOSITION CONTAINING SAME” (DAEBONG LS CO., LTD., priority 2023, published 2026).
